Assay results published in US12084419B2, “Cell metabolism modulating compounds and uses thereof” (CRESCENTA BIOSCIENCES, priority 2020, dated 2024).

Molecular target: T1, His6 tagged human recombinant FABP4 (Homo sapiens, UniProt P15090)
T1 construct: purchased Cayman Chemicals 10009549
Assay: FABP4 TR-FRET assay: displacement of BODIPY FL C12 fatty acid
Settings: triplicates, inhibition of BODIPY FL C12 binding; for inhibition at 1 µM: 1 μM compound; for inhibition at 10 µM: 10 μM compound
Excerpt: Activity of compounds with FABP4 was profiled using a Terbium (Tb) based time resolved fluorescence energy transfer (TR-FRET) assay. The assay measures the compound mediated displacement of the fluorescent fatty acid BODIPY FL C12 (Thermo Fisher; catalog number D3822) from His6 tagged human recombinant FABP4 (His6-FABP4; Cayman Chemicals, catalog number 10009549) via recording the energy transfer from TB donor molecule on anti-His6-tag antibody to acceptor BODIPY moiety. Briefly, compounds were prepared at a concentration of 0.362 mM and 0.0362 mM, and BODIPY FL C12 was prepared at 4.2 μM, in DMSO. 1.2 μL of each compound or DMSO (vehicle control) and 1.2 μL of BODIPY FL C12 were added into the wells of a 384-well black polypropylene plate. His6-FABP4 and Tb anti-His6 antibody were prepared in the assay buffer (25 mM Tris/HCl, pH 7.4, 0.4 mg/ml y-globulins, 0.010% NP-40, 1 mM DTT) at a concentration of 83 nM and 49.6 nM, respectively. The protein and antibody solutions were then mixed at a ratio of 34:7 (v/v) and incubated on ice for 30 minutes. The assay was initiated by adding 41 μL of the resulting protein/antibody solution into the wells containing the compounds and BODIPY FL C12. The plate was centrifuged and incubated at room temperature for 10 min. The TR-FRET signals were recorded using an EnVision Multilabel plate reader (PerkinElmer; TB excitation 320 nm, BODIPY FL C12 emission 520 nm; TB emission 615 nm). Relative fluorescence ratio (520 nm*10,000/615 nm) were used to calculate the compound mediated inhibition of BODIPY C12 FL fatty acid binding to FABP4. […] Glucose consumption and FABP4 inhibition is shown below in Table 3 below.

T1 sequence (P15090 whole entry): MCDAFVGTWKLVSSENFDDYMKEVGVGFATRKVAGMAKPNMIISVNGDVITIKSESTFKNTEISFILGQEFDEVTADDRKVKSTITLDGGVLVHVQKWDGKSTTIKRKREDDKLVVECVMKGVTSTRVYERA

SMILES	inhibition at 1 µM [%]	inhibition at 10 µM [%]
CCCCCCC1CCCc2c(n(Cc3cccc(F)n3)c3c(C(=O)O)cccc23)C1 (centres unmarked) [5-[(6-fluoropyridin-2-yl)methyl]-7-hexyl-5H,6H,7H,8H,9H,10H-cyclohepta[b]indole-4-carboxylic acid]	86.5	91.8
CCCCCCC1CCCc2c(n(Cc3cccc(C(=O)O)n3)c3c(C(=O)O)cccc23)C1 (centres unmarked) [6-({4-carboxy-7-hexyl-5H,6H,7H,8H,9H,10H-cyclohepta[b]indol-5-yl}methyl)pyridine-2-carboxylic acid]	91.6	96.5
CCCCC1CCCCc2c1n(Cc1cccc(C(N)=O)c1)c1c(C(=O)O)cccc21 (centres unmarked) [6-butyl-5-[(3-carbamoylphenyl)methyl]-5H,6H,7H,8H,9H,10H-cyclohepta[b]indole-4-carboxylic acid]	91.4	95.2
CCCCC1CCCCc2c1n(Cc1cccc(C#N)c1)c1c(C(=O)O)cccc21 (centres unmarked) [6-butyl-5-[(3-cyanophenyl)methyl]-5H,6H,7H,8H,9H,10H-cyclohepta[b]indole-4-carboxylic acid]	71.3	85.7
CCCCC1CCCc2c(n(Cc3ccccc3C(N)=O)c3c(C(=O)O)cccc23)C1 (centres unmarked) [7-butyl-5-[(2-carbamoylphenyl)methyl]-5H,6H,7H,8H,9H,10H-cyclohepta[b]indole-4-carboxylic acid]	71.3	94.5
CCCCC1CCCc2c(n(Cc3ccccc3C#N)c3c(C(=O)O)cccc23)C1 (centres unmarked) [7-butyl-5-[(2-cyanophenyl)methyl]-5H,6H,7H,8H,9H,10H-cyclohepta[b]indole-4-carboxylic acid]	91.5	87.3
CCCCC1CCCc2c(n(Cc3ccccc3F)c3c(C(=O)O)cccc23)C1 (centres unmarked) [7-butyl-5-[(2-fluorophenyl)methyl]-5H,6H,7H,8H,9H,10H-cyclohepta[b]indole-4-carboxylic acid]	92.1	88.1
CCCCC1CCCc2c(n(Cc3ccnc(OC)c3)c3c(C(=O)O)cccc23)C1 (centres unmarked) [7-butyl-5-[(2-methoxypyridin-4-yl)methyl]-5H,6H,7H,8H,9H,10H-cyclohepta[b]indole-4-carboxylic acid]	83.4	88.2
CCCCC1CCCc2c(n(Cc3ccccc3C)c3c(C(=O)O)cccc23)C1 (centres unmarked) [7-butyl-5-[(2-methylphenyl)methyl]-5H,6H,7H,8H,9H,10H-cyclohepta[b]indole-4-carboxylic acid]	101	95.3
CCCCC1CCCc2c(n(Cc3cccc(C(N)=O)c3)c3c(C(=O)O)cccc23)C1 (centres unmarked) [7-butyl-5-[(3-carbamoylphenyl)methyl]-5H,6H,7H,8H,9H,10H-cyclohepta[b]indole-4-carboxylic acid]	89.4	117
CCCCC1CCCc2c(n(Cc3cccc(C(N)=O)c3)c3c(C(=O)NCCO)cccc23)C1 (centres unmarked) [7-butyl-5-[(3-carbamoylphenyl)methyl]-N-(2-hydroxyethyl)-5H,6H,7H,8H,9H,10H-cyclohepta[b]indole-4-carboxamide]	10.2	
CCCCC1CCCc2c(n(Cc3cccc(C(=O)O)c3)c3c(C(=O)O)cccc23)C1 (centres unmarked) [7-butyl-5-[(3-carboxyphenyl)methyl]-5H,6H,7H,8H,9H,10H-cyclohepta[b]indole-4-carboxylic acid]	91.8	100
CCCCC1CCCc2c(n(Cc3cccc(Cl)c3)c3c(C(=O)O)cccc23)C1 (centres unmarked) [7-butyl-5-[(3-chlorophenyl)methyl]-5H,6H,7H,8H,9H,10H-cyclohepta[b]indole-4-carboxylic acid]	84.2	83
CCCCC1CCCc2c(n(Cc3cccc(C#N)c3)c3c(C(=O)O)cccc23)C1 (centres unmarked) [7-butyl-5-[(3-cyanophenyl)methyl]-5H,6H,7H,8H,9H,10H-cyclohepta[b]indole-4-carboxylic acid]	73.5	112
CCCCC1CCCc2c(n(Cc3cccc(C#N)c3)c3c(C(=O)NCCO)cccc23)C1 (centres unmarked) [7-butyl-5-[(3-cyanophenyl)methyl]-N-(2-hydroxyethyl)-5H,6H,7H,8H,9H,10H-cyclohepta[b]indole-4-carboxamide]	6.65	42.7
CCCCC1CCCc2c(n(Cc3cccc(F)c3)c3c(C(=O)O)cccc23)C1 (centres unmarked) [7-butyl-5-[(3-fluorophenyl)methyl]-5H,6H,7H,8H,9H,10H-cyclohepta[b]indole-4-carboxylic acid]	97	90.6

SMILES	inhibition at 1 µM [%]	inhibition at 10 µM [%]
CCCCC1CCCc2c(n(Cc3cccc(O)c3)c3c(C(=O)O)cccc23)C1 (centres unmarked) [7-butyl-5-[(3-hydroxyphenyl)methyl]-5H,6H,7H,8H,9H,10H-cyclohepta[b]indole-4-carboxylic acid]	98.7	96.1
CCCCC1CCCc2c(n(Cc3cccc(OC)c3)c3c(C(=O)O)cccc23)C1 (centres unmarked) [7-butyl-5-[(3-methoxyphenyl)methyl]-5H,6H,7H,8H,9H,10H-cyclohepta[b]indole-4-carboxylic acid]	91.7	86.5
CCCCC1CCCc2c(n(Cc3cccc(C)c3)c3c(C(=O)O)cccc23)C1 (centres unmarked) [7-butyl-5-[(3-methylphenyl)methyl]-5H,6H,7H,8H,9H,10H-cyclohepta[b]indole-4-carboxylic acid]	94.8	91
CCCCC1CCCc2c(n(Cc3ccc(C(N)=O)cc3)c3c(C(=O)O)cccc23)C1 (centres unmarked) [7-butyl-5-[(4-carbamoylphenyl)methyl]-5H,6H,7H,8H,9H,10H-cyclohepta[b]indole-4-carboxylic acid]	92.6	95.5
CCCCC1CCCc2c(n(Cc3ccc(C)cc3)c3c(C(=O)O)cccc23)C1 (centres unmarked) [7-butyl-5-[(4-methylphenyl)methyl]-5H,6H,7H,8H,9H,10H-cyclohepta[b]indole-4-carboxylic acid]	106	92.4
CCCCC1CCCc2c(n(Cc3cccnc3)c3c(C(=O)O)cccc23)C1 (centres unmarked) [7-butyl-5-[(pyridin-3-yl)methyl]-5H,6H,7H,8H,9H,10H-cyclohepta[b]indole-4-carboxylic acid]	71.6	83.8
CCCCCCC1CCCc2c(n(Cc3ccnc(OC)c3)c3c(C(=O)O)cccc23)C1 (centres unmarked) [7-hexyl-5-[(2-methoxypyridin-4-yl)methyl]-5H,6H,7H,8H,9H,10H-cyclohepta[b]indole-4-carboxylic acid]	78.1	82.8
CCCCCCC1CCCc2c(n(Cc3ccccc3C)c3c(C(=O)O)cccc23)C1 (centres unmarked) [7-hexyl-5-[(2-methylphenyl)methyl]-5H,6H,7H,8H,9H,10H-cyclohepta[b]indole-4-carboxylic acid]	92.7	84.2
CCCCCCC1CCCc2c(n(Cc3cccc(OC)c3)c3c(C(=O)O)cccc23)C1 (centres unmarked) [7-hexyl-5-[(3-methoxyphenyl)methyl]-5H,6H,7H,8H,9H,10H-cyclohepta[b]indole-4-carboxylic acid]		93.6
CCCCCCC1CCCc2c(n(Cc3cccc(C)c3)c3c(C(=O)O)cccc23)C1 (centres unmarked) [7-hexyl-5-[(3-methylphenyl)methyl]-5H,6H,7H,8H,9H,10H-cyclohepta[b]indole-4-carboxylic acid]	98.6	94.7
CCCCCCC1CCCc2c(n(Cc3ccc(C)cc3)c3c(C(=O)O)cccc23)C1 (centres unmarked) [7-hexyl-5-[(4-methylphenyl)methyl]-5H,6H,7H,8H,9H,10H-cyclohepta[b]indole-4-carboxylic acid]	95.6	91.7
CCCCCCC1CCCc2c(n(Cc3cccnc3)c3c(C(=O)O)cccc23)C1 (centres unmarked) [7-hexyl-5-[(pyridin-3-yl)methyl]-5H,6H,7H,8H,9H,10H-cyclohepta[b]indole-4-carboxylic acid]	105	97.3
CCCCCCC1CCCc2c(n(Cc3ccnc(C(F)(F)F)c3)c3c(C(=O)O)cccc23)C1 (centres unmarked) [7-hexyl-5-{[2-(trifluoromethyl)pyridin-4-yl]methyl}-5H,6H,7H,8H,9H,10H-cyclohepta[b]indole-4-carboxylic acid]	87.6	94.7
CCCCCCC1CCCc2c(n(Cc3cccc(C(F)(F)F)n3)c3c(C(=O)O)cccc23)C1 (centres unmarked) [7-hexyl-5-{[6-(trifluoromethyl)pyridin-2-yl]methyl}-5H,6H,7H,8H,9H,10H-cyclohepta[b]indole-4-carboxylic acid]		79.8
CCCCCCC1CCc2c(n(Cc3ccccc3C(N)=O)c3c(C(=O)O)cccc23)C1 (centres unmarked) [9-[(2-carbamoylphenyl)methyl]-2-hexyl-2,3,4,9-tetrahydro-1H-carbazole-8-carboxylic acid]	31.1	80.7
